Assay results taken from ChEMBL document CHEMBL1201862, “PubChem BioAssay data set” (2004).
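Protocol summary: plate cells (96-well), add compound at 5 concentrations, incubate 48 h, interpolate endpoints linearly. GI50 marks 50% less growth.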 Activity calls are given as the source filed them. No stated cut-off is given here; in the data, active = GI50 up to about 1.1 µM and inactive = higher. Where a SMILES comes first, the peptide text is derived from it. [ ]: non-standard residue; d: D form. The star is where a group is joined. NMeF = CN[C@@H](Cc1ccccc1)C(=O)O; NMeV = CN[C@H](C(=O)O)C(C)C; Boc = CC(C)(C)OC(=O)*; OBn = c1ccc(CO*)cc1

What was measured:
Test in all cases: NCI tumour cell line growth inhibition, 48 h
A498 = test system: A498
A549 = test system: A549
ACHN = test system: ACHN
COLO 205 = test system: COLO 205
DU-145 = test system: DU-145
HCT-116 = test system: HCT-116
HOP-62 = test system: HOP-62
HT-29 = test system: HT-29
IGROV-1 = test system: IGROV-1
MOLT-4 = test system: MOLT-4
OVCAR-3 = test system: OVCAR-3
OVCAR-4 = test system: OVCAR-4
PC-3 = test system: PC-3
SK-MEL-28 = test system: SK-MEL-28
SK-MEL-2 = test system: SK-MEL-2
SK-OV-3 = test system: SK-OV-3
SNB-75 = test system: SNB-75
U-251 = test system: U-251
UACC-257 = test system: UACC-257
UO-31 = test system: UO-31

| SMILES | GI50 (A498) | GI50 (A549) | GI50 (ACHN) | GI50 (COLO 205) | GI50 (DU-145) | GI50 (HCT-116) | GI50 (HOP-62) | GI50 (HT-29) | GI50 (IGROV-1) | GI50 (MOLT-4) | GI50 (OVCAR-3) | GI50 (OVCAR-4) | GI50 (PC-3) | GI50 (SK-MEL-28) | GI50 (SK-MEL-2) | GI50 (SK-OV-3) | GI50 (SNB-75) | GI50 (U-251) | GI50 (UACC-257) | GI50 (UO-31) |
| --- | --- | --- | --- | --- | --- | --- | --- | --- | --- | --- | --- | --- | --- | --- | --- | --- | --- | --- | --- | --- |
| OC1(C(F)(F)F)OCCN=C1C(F)(F)F (stereo not given) | > 100 µM (inactive) | > 100 µM (inactive) | > 100 µM (inactive) | > 100 µM (inactive) | 41.1 µM (inactive) | 51.5 µM (inactive) | > 100 µM (inactive) | > 100 µM (inactive) | 99.3 µM (inactive) | 69.8 µM (inactive) | 52 µM (inactive) | > 100 µM (inactive) | > 100 µM (inactive) | > 100 µM (inactive) | 31.5 µM (inactive) | > 100 µM (inactive) | > 100 µM (inactive) | > 100 µM (inactive) | > 100 µM (inactive) | > 100 µM (inactive) |
| COC(=O)NCCc1n[nH]c2c1C(=O)C=C(Nc1ccccc1OC)C2=O | 31.7 µM (inactive) | 41.2 µM (inactive) | 38.6 µM (inactive) | 24.3 µM (inactive) | 42.4 µM (inactive) | 18.9 µM (inactive) | 83.4 µM (inactive) | 28.1 µM (inactive) | 26.5 µM (inactive) | 21.8 µM (inactive) | 7.64 µM (inactive) | 16.8 µM (inactive) | 31.6 µM (inactive) | 38.4 µM (inactive) | 22.2 µM (inactive) | > 100 µM (inactive) | 28.2 µM (inactive) | 24.8 µM (inactive) | 17 µM (inactive) | 42.2 µM (inactive) |
| CC1(C)CC[C@]2(C(=O)O)CC[C@]3(C)C(=CC[C@@H]4[C@@]5(C)C[C@H](O)[C@H](O)[C@@](C)(C(=O)O)[C@@H]5CC[C@]43C)[C@@H]2C1 | > 100 µM (inactive) | > 100 µM (inactive) | > 100 µM (inactive) | > 100 µM (inactive) | > 100 µM (inactive) | > 100 µM (inactive) | > 100 µM (inactive) | > 100 µM (inactive) | > 89.3 µM (inactive) | > 100 µM (inactive) | > 100 µM (inactive) | > 82.2 µM (inactive) | > 100 µM (inactive) | > 100 µM (inactive) | > 100 µM (inactive) | > 100 µM (inactive) | > 100 µM (inactive) | > 100 µM (inactive) | > 100 µM (inactive) | > 100 µM (inactive) |
| O=C(O)c1nnsc1COCc1ccccc1 | > 100 µM (inactive) | > 100 µM (inactive) | > 100 µM (inactive) | > 100 µM (inactive) | > 100 µM (inactive) | > 100 µM (inactive) | > 100 µM (inactive) | > 100 µM (inactive) | > 100 µM (inactive) | > 100 µM (inactive) | > 100 µM (inactive) | > 100 µM (inactive) | > 100 µM (inactive) | > 100 µM (inactive) | > 100 µM (inactive) | > 100 µM (inactive) | > 100 µM (inactive) | > 100 µM (inactive) | > 100 µM (inactive) | > 100 µM (inactive) |
| CC(=O)N1N=C(c2c(O)ccc3ccccc23)CC1c1ccc(Cl)cc1 (stereo not given) | 26.1 µM (inactive) | 23.6 µM (inactive) | 25.5 µM (inactive) | 19.9 µM (inactive) | 43.8 µM (inactive) | 15 µM (inactive) | 16 µM (inactive) | 24.7 µM (inactive) | 12.4 µM (inactive) | 10.9 µM (inactive) | 14.1 µM (inactive) | 19.6 µM (inactive) | 17 µM (inactive) | 27.4 µM (inactive) | 17.5 µM (inactive) | 28.4 µM (inactive) | 22 µM (inactive) | 21.9 µM (inactive) | 27.9 µM (inactive) | 19.8 µM (inactive) |
| COc1ccc(C(=C2C(=O)OC(=O)C2=C(C)C)c2ccc(OC)cc2)cc1 | > 100 µM (inactive) | 67.6 µM (inactive) | > 100 µM (inactive) | > 100 µM (inactive) | > 100 µM (inactive) | > 100 µM (inactive) | 45.8 µM (inactive) | 48 µM (inactive) | 54 µM (inactive) | 57.4 µM (inactive) | 22 µM (inactive) | 29.6 µM (inactive) | 60.4 µM (inactive) | > 100 µM (inactive) | 53.8 µM (inactive) | > 100 µM (inactive) | > 100 µM (inactive) | 33.4 µM (inactive) | > 100 µM (inactive) | > 100 µM (inactive) |
| COc1ccc(-c2coc3c4c(ccc3c2=O)OCO4)cc1OC | > 100 µM (inactive) | 55.6 µM (inactive) | 49.2 µM (inactive) | > 100 µM (inactive) | > 100 µM (inactive) | > 100 µM (inactive) | 36.7 µM (inactive) | > 100 µM (inactive) | 44.4 µM (inactive) | > 100 µM (inactive) | 23.8 µM (inactive) | 22.5 µM (inactive) | > 100 µM (inactive) | > 100 µM (inactive) | 65.3 µM (inactive) | 24.4 µM (inactive) | 38.2 µM (inactive) | 37.2 µM (inactive) | > 100 µM (inactive) | 99.8 µM (inactive) |
| CC(C)=CC(=O)C[C@H]1C(=O)O[C@@H]2C[C@H]3C(C)=CC(=O)[C@@H](O)[C@]3(C)[C@H]3[C@@]4(O)OC[C@]32[C@@H]1[C@@H](C)[C@H]4O | 0.236 µM (active) | 0.122 µM (active) | 0.0278 µM (active) | 0.125 µM (active) | 0.0177 µM (active) | < 0.01 µM (active) | 0.0227 µM (active) | < 0.0107 µM (active) | < 0.01 µM (active) | < 0.01 µM (active) | < 0.0146 µM (active) | 0.0364 µM (active) | 0.0159 µM (active) | < 0.0114 µM (active) | 0.0311 µM (active) | 0.187 µM (active) | 0.0148 µM (active) | < 0.01 µM (active) | 0.0185 µM (active) | 0.0605 µM (active) |
| COC(=O)C1=C(OC(=O)/C(=C/c2ccc(Cl)cc2)c2ccccc2)C(C(=O)OC)[C@@]2(O)[C@@H](C(=O)OC)[C@H](C)C[C@@H]1[C@@H]2C(=O)OC (stereo not given in full) | 5.55 µM (inactive) | 7.85 µM (inactive) | > 100 µM (inactive) | > 100 µM (inactive) | > 100 µM (inactive) | > 100 µM (inactive) | > 100 µM (inactive) | > 100 µM (inactive) | 23.6 µM (inactive) | > 100 µM (inactive) | > 100 µM (inactive) | > 100 µM (inactive) | 37.5 µM (inactive) | > 100 µM (inactive) | > 100 µM (inactive) | > 100 µM (inactive) | 29.6 µM (inactive) | 26.7 µM (inactive) | > 100 µM (inactive) | > 100 µM (inactive) |
| COc1ccc(CCNC(=O)Cc2cc(OC)c(OC)cc2CO)cc1OC | > 100 µM (inactive) | > 100 µM (inactive) | > 100 µM (inactive) | > 100 µM (inactive) | > 100 µM (inactive) | > 100 µM (inactive) | > 100 µM (inactive) | > 100 µM (inactive) | > 100 µM (inactive) | > 100 µM (inactive) | > 100 µM (inactive) | > 100 µM (inactive) | > 100 µM (inactive) | > 100 µM (inactive) | > 100 µM (inactive) | > 100 µM (inactive) | > 100 µM (inactive) | > 100 µM (inactive) | > 100 µM (inactive) | > 100 µM (inactive) |
| COc1cccc(-c2nc(N)c(C#N)c3c2CCS(=O)(=O)c2ccc(C)cc2-3)c1 | 30.1 µM (inactive) | 11.6 µM (inactive) | > 100 µM (inactive) | 8.05 µM (inactive) | 37.6 µM (inactive) | 20 µM (inactive) | 30.2 µM (inactive) | 9.68 µM (inactive) | 15.2 µM (inactive) | 22.9 µM (inactive) | 21 µM (inactive) | > 100 µM (inactive) | 15.8 µM (inactive) | > 78.5 µM (inactive) | 38.3 µM (inactive) | 46.7 µM (inactive) | 10.4 µM (inactive) | 36.6 µM (inactive) | 34.1 µM (inactive) | 40.3 µM (inactive) |
| CCOC(=O)/C=C(/C(=O)OCC)n1ccc(=O)n(Cc2cnnn2COCCOC(C)=O)c1=O | 24 µM (inactive) | 41.1 µM (inactive) | 8.73 µM (inactive) | 2.92 µM (inactive) | 20.7 µM (inactive) | 18.9 µM (inactive) | > 73.1 µM (inactive) | 17.5 µM (inactive) | 17.9 µM (inactive) | 4.51 µM (inactive) | 14.9 µM (inactive) | 20 µM (inactive) | 17.5 µM (inactive) | 16.3 µM (inactive) | 19.9 µM (inactive) | > 100 µM (inactive) | 41.2 µM (inactive) | 17.9 µM (inactive) | 16.8 µM (inactive) | 16 µM (inactive) |
| CC(C)[C@@H](C(=O)N1CCC[C@H]1C(=O)OCc1ccccc1)N(C)C(=O)[C@H](C(C)C)N(C)C(=O)[C@H](Cc1ccccc1)N(C)C(=O)[C@H](NC(=O)OC(C)(C)C)C(C)C (Boc-[dV][NMeF][NMeV][NMeV]P-OBn) | > 50 µM (inactive) | > 50 µM (inactive) | > 50 µM (inactive) | > 50 µM (inactive) | > 50 µM (inactive) | > 50 µM (inactive) | > 50 µM (inactive) | > 50 µM (inactive) | > 50 µM (inactive) | > 50 µM (inactive) | > 50 µM (inactive) | > 50 µM (inactive) | > 50 µM (inactive) | > 50 µM (inactive) | > 50 µM (inactive) | > 50 µM (inactive) | > 50 µM (inactive) | > 50 µM (inactive) | > 50 µM (inactive) | > 50 µM (inactive) |
